Assay results from patent publication US20140187548A1, “6 SUBSTITUTED IMIDAZOPYRAZINES FOR USE AS MPS-1 AND TKK INHIBITORS IN THE TREATMENT OF HYPERPROLIFERATIVE DISORDERS” (BAYER INTELLECTUAL PROPERTY GMBH, priority 2010, published 2014).

Each molecule was assayed against T1, human kinase Mps-1 (Homo sapiens, UniProt P33981) (assay: Mps-1 kinase assay (TR-FRET)). Conditions: N-terminally GST-tagged human full length recombinant Mps-1; 10 μM ATP; 1 μM peptide substrate; 15 min pre-incubation; 60 min at 22° C.
T1 construct: N-terminally GST-tagged human full length recombinant Mps-1 kinase; GST (N); purchased Invitrogen, Karslruhe, Germany PV4071
T1 sequence (P33981 1-857): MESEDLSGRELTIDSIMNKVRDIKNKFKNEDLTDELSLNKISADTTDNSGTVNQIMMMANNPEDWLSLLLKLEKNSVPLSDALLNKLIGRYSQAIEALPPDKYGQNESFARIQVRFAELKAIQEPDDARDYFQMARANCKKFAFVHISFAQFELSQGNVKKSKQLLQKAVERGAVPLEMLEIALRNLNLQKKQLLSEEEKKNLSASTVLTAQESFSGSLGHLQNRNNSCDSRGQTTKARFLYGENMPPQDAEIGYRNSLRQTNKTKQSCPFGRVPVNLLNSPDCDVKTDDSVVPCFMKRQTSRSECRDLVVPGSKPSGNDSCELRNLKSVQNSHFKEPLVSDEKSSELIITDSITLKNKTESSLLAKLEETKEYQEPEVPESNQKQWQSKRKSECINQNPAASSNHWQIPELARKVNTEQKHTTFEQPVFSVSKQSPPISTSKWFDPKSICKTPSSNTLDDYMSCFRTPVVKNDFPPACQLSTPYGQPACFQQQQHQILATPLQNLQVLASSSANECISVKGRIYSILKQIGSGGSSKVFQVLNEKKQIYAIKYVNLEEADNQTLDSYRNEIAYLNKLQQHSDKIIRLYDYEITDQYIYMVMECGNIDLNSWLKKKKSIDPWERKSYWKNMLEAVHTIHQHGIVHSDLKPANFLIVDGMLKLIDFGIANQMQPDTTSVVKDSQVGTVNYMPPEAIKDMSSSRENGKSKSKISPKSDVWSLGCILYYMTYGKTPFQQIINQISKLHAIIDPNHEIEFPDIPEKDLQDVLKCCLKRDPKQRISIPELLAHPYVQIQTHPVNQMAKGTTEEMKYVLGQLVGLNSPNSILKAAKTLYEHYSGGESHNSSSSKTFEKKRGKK
Assay type: biochemical
Outline: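 N-terminally GST-tagged full-length recombinant human Mps-1, about 1 nM final, phosphorylates a biotinylated peptide. Product detected by TR-FRET from Eu-anti-phospho-Ser/Thr antibody to streptavidin-XLent after 1 h at 22° C.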

| IC50 | SMILES |
| --- | --- |
| 9.1 nM | NS(=O)(=O)c1ccc(CCNc2nc(-c3ccccc3)cn3c(-c4ccc(C(=O)NC5CC5)cc4)cnc23)cc1 [Example 2-21, N-cyclopropyl-4-(6-phenyl-8-{[2-(4-sulfamoylphenyl)ethyl]amino}imidazo[1,2-a]pyrazin-3-yl)benzamide] |
| 13.8 nM | O=C(NC1CC1)c1ccc(-c2cnc3c(NCc4cccc(Cl)c4)nc(-c4ccccc4)cn23)cc1 [Example 2-6, 4-{8-[(3-chlorobenzyl)amino]-6-phenylimidazo [1,2-a]pyrazin-3-yl}-N-cyclopropylbenzamide] |
| 2.7 nM | O=C(NC1CC1)c1ccc(-c2cnc3c(NCCO)nc(-c4ccccc4)cn23)cc1 [Example 2-1, N-cyclopropyl-4-{8-[(2-hydroxyethyl)amino]-6-phenylimidazo[1,2-a]pyrazin-3-yl}benzamide] |
| 4.9 nM | O=C(NC1CC1)c1ccc(-c2cnc3c(NCc4ccc(Cl)s4)nc(-c4ccccc4)cn23)cc1 [Example 2-60, 4-(8-{[(5-chlorothiophen-2-yl)methyl]amino}-6-phenylimidazo [1,2-a]pyrazin-3-yl)-N-cyclopropylbenzamide] |
| 2.2 nM | O=C(NC1CC1)c1ccc(-c2cnc3c(NCc4cccnc4)nc(-c4ccccc4)cn23)cc1 [Example 2-28, N-cyclopropyl-4-{6-phenyl-8-[(pyridin-3-ylmethyl)amino]imidazo[1,2-a]pyrazin-3-yl} benzamide] |
| 4.6 nM | CC(C)CNc1nc(-c2cccc3ccccc23)cn2c(-c3ccc(C(=O)NC4CC4)cc3)cnc12 [Example 1-4, N-cyclopropyl-4-{8-[(2-methylpropyl)amino]-6-(naphthalen-1-yl)imidazo[1,2-a]pyrazin-3-yl}benzamide] |
| 28.7 nM | O=C(NC1CC1)c1ccc(-c2cnc3c(NCC4CCCO4)nc(-c4ccc(F)cc4)cn23)cc1Cl (stereo not shown) [Example 1-103, 2-chloro-N-cyclopropyl-4-{6-(4-fluorophenyl)-8-[(tetrahydrofuran-2-ylmethyl)amino]imidazo [1,2-a]pyrazin-3-yl} benzamide] |
| 2.7 nM | CC(C)CNc1nc(-c2ccc(C(=O)N(C)C)cc2)cn2c(-c3ccc(C(=O)NC4CC4)cc3)cnc12 [Example 1-16, 4-{3-[4-(cyclopropyl-carbamoyl)phenyl]-8-[(2-methylpropyl)amino]imidazo[1,2-a]pyrazin-6-yl}-N,N-dimethyl-benzamide] |
| 16.3 nM | CC(C)CNc1nc(-c2ccccc2C(F)(F)F)cn2c(-c3ccc(C(=O)NC4CC4)cc3)cnc12 [Example 1-43, N-cyclopropyl-4-{8-[(2-methylpropyl)amino]-6-[2-(trifluoromethyl)phenyl]imidazo[1,2-a]pyrazin-3-yl}benzamide] |
| 91.3 nM | CC(C)(O)CNc1nc(-c2ccn[nH]2)cn2c(-c3ccc(C(=O)NC4CC4)c(Cl)c3)cnc12 [Example 1-101, 2-chloro-N-cyclopropyl-4-{8-[(2-hydroxy-2-methyl-propyl)amino]-6-(1H-pyrazol-5-yl)imidazo [1,2-a]pyrazin-3-yl} benzamide] |
| 1.2 nM | O=C(NC1CC1)c1ccc(-c2cnc3c(NCC4CCCCC4)nc(-c4cccc5ncccc45)cn23)cc1 [Example 1-128, 4-{8-[(cyclohexylmethyl)amino]-6-(quinolin-5-yl)imidazo[1,2-a]pyrazin-3-yl}-N-cyclopropylbenzamide] |
| 11.2 nM | CC(=O)Nc1ccccc1-c1cn2c(-c3ccc(C(=O)NC4CC4)cc3)cnc2c(NCC(C)C)n1 [Example 1-14, 4-{6-[2-(acetylamino)phenyl]-8-[(2-methyl-propyl)amino]imidazo [1,2-a]pyrazin-3-yl}-N-cyclopropylbenzamide] |
| 7.4 nM | COc1ccccc1-c1cn2c(-c3ccc(C(=O)NC4CC4)cc3)cnc2c(NCC(C)C)n1 [Example 1-41, N-cyclopropyl-4-{6-(2-methoxyphenyl)-8-[(2-methylpropyl)amino]imidazo[1,2-a]pyrazin-3-yl}benzamide] |
